This experiment addresses Vascular endothelial growth factor receptor 2 (Homo sapiens, UniProt P35968). As to the kind of experiment: Inhibition of KDR.

The record followed here is ChEMBL document CHEMBL1240323, “3D QSAR studies on a series of potent and high selective inhibitors for three kinases of RTK family” (J Mol Graph Model, 2007).

As a reminder, the IC50 is the midpoint of a concentration-inhibition curve.

Chain of Vascular endothelial growth factor receptor 2 (P35968 whole entry): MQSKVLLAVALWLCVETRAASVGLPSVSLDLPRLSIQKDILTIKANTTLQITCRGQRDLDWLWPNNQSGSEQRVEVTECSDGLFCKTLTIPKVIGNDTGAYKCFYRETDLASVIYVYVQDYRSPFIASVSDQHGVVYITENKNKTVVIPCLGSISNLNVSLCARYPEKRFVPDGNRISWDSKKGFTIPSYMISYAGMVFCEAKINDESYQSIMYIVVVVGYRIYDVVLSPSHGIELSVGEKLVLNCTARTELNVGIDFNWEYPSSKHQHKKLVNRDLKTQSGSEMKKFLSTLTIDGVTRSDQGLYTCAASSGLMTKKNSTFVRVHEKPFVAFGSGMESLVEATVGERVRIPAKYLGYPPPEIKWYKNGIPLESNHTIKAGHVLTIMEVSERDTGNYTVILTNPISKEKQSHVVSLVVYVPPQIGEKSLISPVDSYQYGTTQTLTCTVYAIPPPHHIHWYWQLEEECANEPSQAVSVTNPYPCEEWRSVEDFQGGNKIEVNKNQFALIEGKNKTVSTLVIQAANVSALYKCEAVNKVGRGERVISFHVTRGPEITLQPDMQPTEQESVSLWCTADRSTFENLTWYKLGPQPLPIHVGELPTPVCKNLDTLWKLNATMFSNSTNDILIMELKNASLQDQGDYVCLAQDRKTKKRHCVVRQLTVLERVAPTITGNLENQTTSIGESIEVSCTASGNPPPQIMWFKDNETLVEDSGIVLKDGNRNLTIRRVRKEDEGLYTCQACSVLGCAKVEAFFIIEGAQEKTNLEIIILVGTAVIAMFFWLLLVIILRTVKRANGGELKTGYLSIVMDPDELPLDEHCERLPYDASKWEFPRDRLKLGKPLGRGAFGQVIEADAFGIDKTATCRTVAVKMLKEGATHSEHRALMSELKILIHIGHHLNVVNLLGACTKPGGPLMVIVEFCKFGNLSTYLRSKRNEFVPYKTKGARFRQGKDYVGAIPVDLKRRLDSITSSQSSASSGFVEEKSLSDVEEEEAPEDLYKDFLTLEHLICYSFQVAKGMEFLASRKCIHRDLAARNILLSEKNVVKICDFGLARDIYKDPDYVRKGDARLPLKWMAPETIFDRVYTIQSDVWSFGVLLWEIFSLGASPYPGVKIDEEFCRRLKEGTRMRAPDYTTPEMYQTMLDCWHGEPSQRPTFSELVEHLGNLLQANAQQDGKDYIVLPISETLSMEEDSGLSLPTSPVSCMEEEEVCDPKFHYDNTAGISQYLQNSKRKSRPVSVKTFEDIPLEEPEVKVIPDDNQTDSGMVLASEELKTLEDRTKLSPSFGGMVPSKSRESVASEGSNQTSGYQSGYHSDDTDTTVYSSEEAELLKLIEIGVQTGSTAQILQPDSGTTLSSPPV

In turn, `Cc1sc2ncnc(N)c2c1-c1ccc(NC(=O)Nc2cc(C(F)(F)F)ccc2F)cc1` had a half-maximal inhibitory concentration (IC50) of 45.7 nM.
